In this experiment the target is S. pyogenes SKKanGAS, kanamycin survival, BacTiterGlo, 6 h. Description: SKKanGAS survival reduction under kanamycin, dose response, streptokinase promoter inhibitor project, SKKanGAS strain, luminescence, dose confirmation (AID 1902).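 Further: lower survival reflects blocked streptokinase promoter driving kanamycin resistance gene.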

The text below walks through data of PubChem BioAssay AID1902 (Broad Institute, 2009).

Molecules are shown by their SMILES. pEC50: −log10 of the molar value. Active and inactive are the calls of the source.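 How the source made its calls: active means EC50 no more than a set limit of log units above the highest dose; inactive means the rest.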

In general, pEC50 refers to −log10 of the EC50, conventionally taken in molar units. `O=c1c2cn[nH]c2nc(SCc2c(F)cccc2F)n1-c1ccc(Cl)cc1`: the negative logarithm of the EC50 (pEC50) is 4.96.

In the case of `Cc1cc(C)n(C(=O)/C(C#N)=N/Nc2cc(Cl)cc(Cl)c2)n1`, the pEC50 is 5.75.

`CC[C@@H]1CC=C[C@H]2[C@H]1C(=O)N(Cc1ccccc1)[C@H]2c1ccc(OC)c(Cl)c1`: the negative logarithm of the EC50 (pEC50) is 5.38.

In the case of `Cc1ccccc1/C=C/C(=O)c1ccc([N+](=O)[O-])o1`, the negative logarithm of the EC50 (pEC50) is 5.34.

For the compound `Oc1ccccc1C1CCCCC1c1ccccc1` (configuration not stated), the pEC50 was 5.41.

`Cc1ccc(C(C)C)c(OCc2ccc(C(=O)N/N=C/c3cccc(O)c3O)cc2)c1`: the negative-log EC50 (pEC50) was 5.25.

Take `Fc1ccccc1CNc1cc(Cl)cc(Cl)c1`: the negative logarithm of the EC50 (pEC50) was 4.90.

As to `O=C(O)c1ccccc1N/N=C/c1cc(Br)cc(Br)c1O`, the pEC50 was 5.10.

`CCCCNC(=O)c1sc(=S)n2c1[nH]c(=O)c1ccccc12`: the negative-log EC50 (pEC50) was 5.04.

On to `c1ccc(-c2nc(-c3nccc4ccccc34)oc2-c2ccccc2)cc1`, for which the pEC50 is 5.45.

With `COc1ccc(/C=C/C(=O)NC(=S)NNC(=O)c2cc(OC)c(OC)c(OC)c2)cc1OC`, the negative-log EC50 (pEC50) is 5.83.

What is called EC50 is the concentration needed to bring the measured effect to its halfway point. Regarding `Cc1cc(C)cc(C(=O)N2CCC(CCC(=O)NC3CC3)CC2)c1`, the EC50 was > 15 µM (inactive).

For `C/C(=N\Nc1nc(N2CCCCCC2)nc(N2CCCCCC2)n1)c1ccccc1`, the pEC50 was 5.43.

Regarding `Cc1cc(NCc2ccccn2)n2nc(C)c(-c3ccc(Cl)cc3)c2n1`, the pEC50 was 5.36.

Take `O=c1c2ccccc2nc(COc2ccccc2)n1/N=C/c1cc([N+](=O)[O-])ccc1O`: the negative-log EC50 (pEC50) was 5.76.

On to `COc1ccccc1C(=O)NNC(=S)NC(=O)c1cc(OC)c(OC)c(OC)c1`, for which the pEC50 was 6.01.

Turning to `CC[C@H]1OC(=O)C[C@@H](O)[C@H](C)[C@@H](O[C@@H]2O[C@H](C)C[C@H](N(C)C)[C@H]2O)[C@@H](CC=O)C[C@@H](C)C(=O)C=C[C@]2(C)O[C@H]2[C@@H]1C`, the negative-log EC50 (pEC50) is more than 7.22.

Turning to `N#CC1=C(c2ccccc2)/C(=C/c2ccccc2)OC1=O`, the negative logarithm of the EC50 (pEC50) was 5.00.

Regarding `Cc1ccc(Cl)cc1N1CCN(C(=O)c2cn(C)c(=O)c3c2c2ccccc2n3C)CC1`, the negative-log EC50 (pEC50) is 5.31.

On to `CCN(CC)c1ccc(/C=N/NC(=O)CCC(=O)NCc2ccccc2)c(O)c1`, for which the negative logarithm of the EC50 (pEC50) was 5.47.

With `COc1ccc(N(CC(=O)NCCSCc2cccc(Cl)c2)S(C)(=O)=O)cc1Cl`, the pEC50 is 5.33.

Take `CC1CCN(Cc2c(C(=O)N/N=C/c3cc(Br)ccc3O)nnn2-c2nonc2N)CC1`: the pEC50 is 4.99.

As to `CCC1=NN2C(=N)/C(=C\c3cccn3-c3ccc(C)c(C)c3)C(=O)N=C2S1`, the pEC50 is 5.41.

Turning to `COc1c(N2CCN(C(=S)NC3CC4CCC3C4)C(C)C2)c(F)cc2c(=O)c(C(=O)O)cn(C3CC3)c12` (configuration not stated), the pEC50 was 5.51.

As for `CC(C)NC(=S)NC(c1ccccc1)(c1ccccc1)c1ccccc1`, the pEC50 is 5.31.

For the compound `CC(C)C(=O)NC(c1ccccc1)c1cc([N+](=O)[O-])c2cccnc2c1O` (configuration not stated), the pEC50 is 5.61.

`CCC(=O)N1N=C(c2c(O)n(CCc3ccccc3)c(=O)[nH]c2=O)CC1c1ccc(OC)c(OC)c1` (configuration not stated): the negative-log EC50 (pEC50) is 6.00.

On to `Cc1ccc(C(=O)NNC(=S)NC(=O)c2ccco2)cc1`, for which the pEC50 was 6.04.

On to `CC(C)(C)c1ccc(OCC(=O)N2CCN(c3ncccn3)CC2)cc1`, for which the EC50 was > 15 µM (inactive).

Consider `O=C(COc1ccc(Cl)cc1Cl)Nc1ccc(-c2ccc(N3CCOCC3)nn2)cc1`, for which the EC50 was > 15 µM (inactive).

In the case of `CCOC(=O)c1csc(Nc2nc3ccc(F)cc3s2)n1`, the pEC50 is 5.49.

Take `O=C(Nc1nccs1)c1sc2ccccc2c1Cl`: the EC50 is > 15 µM (inactive).

For `COc1ccc(Cl)cc1C(=O)NNC(=S)NC(=O)c1ccc(F)c(F)c1`, the pEC50 is 6.86.

For `Cc1nn(-c2ccccc2)c2sc(C(=O)N3CCc4ccccc4C3)cc12`, the pEC50 is 5.38.

With `O=C(CSc1nnc(-c2ccc3c(c2)OCO3)o1)Nc1ncc(C(F)(F)F)cc1Cl`, the pEC50 is 6.07.

Take `COc1ccc(C(=O)NC(=S)NNC(=O)COc2ccccc2)cc1`: the pEC50 was 6.18.

On to `O=C(/C=C/c1ccc(Br)cc1)NC(=S)NNC(=O)c1ccco1`, for which the pEC50 was 6.41.

Regarding `Cc1cc(-c2c(C)[nH]n(-c3ccc(Cl)cc3)c2=O)n[nH]1`, the pEC50 was 5.75.

`COc1cccc(OC)c1C(=O)Nc1cc(C)nn1-c1nc2ccccc2[nH]1`: the pEC50 is 5.20.

For `CCCCCCn1c(=O)c(C(=O)Nc2ncccc2C)c(O)c2ccccc21`, the pEC50 was 6.29.

For `CCCOc1ccc(C(=O)NNC(=S)NC(=O)c2ccccc2[N+](=O)[O-])cc1`, the negative-log EC50 (pEC50) is 5.74.

On to `COc1ccc(-c2c(C(F)(F)F)[nH]n3c(=O)cc(-c4ccccc4)nc23)cc1`, for which the pEC50 is 5.33.

Consider `COc1ccccc1OCC(=O)NNC(=S)NC(=O)c1ccco1`, for which the negative-log EC50 (pEC50) is 5.62.

With `O=C(CNC(=O)c1ccccc1Br)N/N=C\c1cc([N+](=O)[O-])cc(Br)c1O`, the pEC50 is 5.09.

Turning to `Cc1cccc2[nH]c3c(N4CC=C(c5ccc(F)cc5)CC4)ncnc3c12`, the negative-log EC50 (pEC50) is 5.67.

Regarding `CCOC(=O)Nc1ccc(OCc2nnc3c4ccccc4c(C)nn23)cc1`, the pEC50 is more than 7.22.

Take `COCCCn1c(=O)/c(=C\c2ccccc2OC(C)C)s/c1=C(/C#N)C(=O)Nc1ccc(C(=O)O)cc1`: the pEC50 is 5.69.

Take `CCn1c(NC(=O)c2cccc(Cn3cc(Cl)cn3)c2)nc2ccccc21`: the pEC50 was 5.99.

On to `Oc1ccc(Br)cc1/C=N/NC(=S)NCCc1ccccc1`, for which the pEC50 is 5.71.

`CC(C)(C)NC(=O)C1CC2CCCCC2CN1` (configuration not stated): the EC50 was > 15 µM (inactive).

Take `COc1ccc(-c2nc(-c3ccc4c(c3)OCO4)[nH]c2-c2ccc(OC)cc2)cc1`: the negative logarithm of the EC50 (pEC50) was 5.33.

On to `FC(F)(F)c1cccc(NC(=S)N2CCCC2)c1`, for which the EC50 is > 15 µM (inactive).

Regarding `Nc1nonc1-c1nc2ccccc2n1CC(=O)N/N=C/c1ccc(-c2cccc(C(=O)O)c2)o1`, the negative logarithm of the EC50 (pEC50) was 5.52.

With `COc1cc(NS(=O)(=O)c2ccc(C)cc2)c2ncccc2c1`, the negative-log EC50 (pEC50) is 6.11.

Consider `Cc1nc(NS(=O)(=O)c2ccc(Cl)s2)c2c3c(sc2n1)CCCC3`, for which the pEC50 was 5.40.

In the case of `CCOC(=O)c1c(N)sc(C(O)(C(F)(F)F)C(F)(F)F)c1-c1ccc(Cl)cc1`, the pEC50 was 5.50.

`O=[N+]([O-])c1cc(S(=O)(=O)Nc2ccccc2)ccc1N1CCN(c2ccccc2)CC1`: the pEC50 is 5.14.

`CCOc1cc(/C=C2\C(=O)N(c3nc(-c4ccc(Br)cc4)cs3)N=C2c2ccccc2)ccc1O`: the pEC50 was 5.75.

Turning to `Cc1ccc(C(C)C)cc1OCC(=O)Nc1ccccc1N1CCCC1`, the negative-log EC50 (pEC50) was 5.45.

As to `Cc1ccc(NC(=S)NC(=O)c2ccc(-c3ccc(Cl)cc3)o2)c(O)c1`, the pEC50 is 6.27.

As to `Cc1c(C(=O)Nc2nc3ccccc3[nH]2)oc2c(Cl)cccc12`, the negative-log EC50 (pEC50) is 6.14.

For `COc1cnc(-c2ccccn2)nc1Oc1ccccc1Cl`, the pEC50 is 4.84.

As to `CCc1c(C)nc2cc(-c3ccc(OC)c(OC)c3)nn2c1N1CCC(C)CC1`, the pEC50 is 5.12.

`CCN1/C(=C/C(C)=C/c2sc3ccccc3[n+]2CC)Sc2ccccc21`: the pEC50 is 5.69.

In the case of `O=C(NC(=S)N(CCCCO)C1CCCCC1)c1sc2ccccc2c1Cl`, the pEC50 is 6.28.

For the compound `Cc1ccc(NC(=S)NC(=O)c2ccc(F)cc2)cc1S(=O)(=O)Nc1cccc(Cl)c1`, the pEC50 is 5.66.

Consider `Cc1ccccc1/C=N/Nc1nc2ccccc2[nH]1`, for which the pEC50 was 5.28.
